Assay: recombinant UMI read abundance after kanamycin selection (control-corrected) (log10(CPM+1)); higher = more efficient recombination; extreme values may be limits of the assay; sequences stand for … in AGTGCAGAGAAAATCGGCCAGTTTTCTCTGCCTGCAGTCCGCATGCCGTGGGACCCCTTGGGTTCTAACCTGTTGCCTAGATTTATGCAGCGGACTGCCTTTCTCCCAAAGTGATAAACCGG…AGGTTGGTTTCACT; site = the 11-nt donor
Procedure, shortened: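 Sequenced counts of recombinant UMIs were turned into CPM, averaged across replicates and scaled with control-derived factors. The reported figure is log10(CPM+1). Those UMIs, each 12 nt long, tagged donor and donor-binding-loop pairs on a plasmid with a promoterless kanamycin gene, screened as a pool in Escherichia coli with IPTG (0.07 mM) plus kanamycin or without selection.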
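Further: IS621 bridge recombinase in Escherichia coli cells against a fixed T5 target plasmid.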

| Sequence | recombinant UMI read abundance (log10) |
| --- | --- |
| CGATTATCATGGACCGGTTTTCCCGGTAATCCGTATTTGCA (site CGATTATCTTG) | 2.39 |
| CGATTATCATGGACCGGTTTTCCCGGTAATCCGTATTTGTT (site CGATCATCTAG) | 0 |
| CGATTATCATGGACCGGTTTTCCCGGTAATCCGTATTTGTT (site CGATTATCTAA) | 2.45 |
| CGATTTACATGGACCGGTTTTCCCGGTAATCCGTATTTGCT (site CGATTTACTAG) | 1.76 |
| CGCAATCCATGGACCGGTTTTCCCGGTAATCCGTATTTGAG (site CGCAATCCTCT) | 0.964 |
| CGCACATCATGGACCGGTTTTCCCGGTAATCCGTATTTGCT (site CGAACATCTAG) | 0 |
| CGCACATCATGGACCGGTTTTCCCGGTAATCCGTATTTGCT (site CGCACATCTAG) | 1.02 |
| CGCACATCATGGACCGGTTTTCCCGGTAATCCGTATTTGCT (site CGGACATCTAG) | 0 |
| CGCACATCATGGACCGGTTTTCCCGGTAATCCGTATTTGCT (site CGTACATCTAG) | 0 |
| CGCACTCCATGGACCGGTTTTCCCGGTAATCCGTATTTGTT (site CGCACTCCTAA) | 0.808 |
| CGCACTCCATGGACCGGTTTTCCCGGTAATCCGTATTTGTT (site CGGAATCCTAA) | 0 |
| CGCATCACATGGACCGGTTTTCCCGGTAATCCGTATTTGCC (site CGCATCACTGG) | 1.78 |
| CGCATCTCATGGACCGGTTTTCCCGGTAATCCGTATTTGTG (site CGCATCTCTCA) | 1.83 |
| CGCATGCCATGGACCGGTTTTCCCGGTAATCCGTATTTGCA (site CGCATGCCTTG) | 0.808 |
| CGCCACACATGGACCGGTTTTCCCGGTAATCCGTATTTGTA (site CACCACACTTA) | 0.727 |
| CGCCACACATGGACCGGTTTTCCCGGTAATCCGTATTTGTA (site CCCCACACTTA) | 0.261 |
| CGCCACACATGGACCGGTTTTCCCGGTAATCCGTATTTGTA (site CGCCACACTTA) | 1.95 |
| CGCCACACATGGACCGGTTTTCCCGGTAATCCGTATTTGTA (site CTCCACACTTA) | 0.241 |
| CGCCATACATGGACCGGTTTTCCCGGTAATCCGTATTTGCT (site CGCCATACTAG) | 1.64 |
| CGCCATACATGGACCGGTTTTCCCGGTAATCCGTATTTGCT (site CGCCCTACTAG) | 0.00847 |
| CGCCATACATGGACCGGTTTTCCCGGTAATCCGTATTTGCT (site CGCCGTACTAG) | 0 |
| CGCCATACATGGACCGGTTTTCCCGGTAATCCGTATTTGCT (site CGCCTTACTAG) | 0.046 |
| CGCCGCTCATGGACCGGTTTTCCCGGTAATCCGTATTTGCC (site CGCCGCTCTGG) | 2.47 |
| CGCCTAACATGGACCGGTTTTCCCGGTAATCCGTATTTGGG (site CGCCTAACTCC) | 0.0879 |
| CGCGAACCATGGACCGGTTTTCCCGGTAATCCGTATTTGAT (site CGAGAACCTAT) | 0 |

| Sequence | recombinant UMI read abundance (log10) |
| --- | --- |
| CGCGAACCATGGACCGGTTTTCCCGGTAATCCGTATTTGAT (site CGCGAACCTAT) | 0 |
| CGCGAACCATGGACCGGTTTTCCCGGTAATCCGTATTTGAT (site CGGGAACCTAT) | 0 |
| CGCGAACCATGGACCGGTTTTCCCGGTAATCCGTATTTGAT (site CGTGAACCTAT) | 0 |
| CGCGATTCATGGACCGGTTTTCCCGGTAATCCGTATTTGGC (site CGCGATTCTGC) | 1.61 |
| CGCGCGCCATGGACCGGTTTTCCCGGTAATCCGTATTTGAG (site CGCGCGCCTCT) | 0.0359 |
| CGCGGTACATGGACCGGTTTTCCCGGTAATCCGTATTTGCT (site CGCAGTACTAG) | 1.64 |
| CGCGGTACATGGACCGGTTTTCCCGGTAATCCGTATTTGCT (site CGCCGTACTAG) | 0 |
| CGCGGTACATGGACCGGTTTTCCCGGTAATCCGTATTTGCT (site CGCGGTACTAG) | 1.92 |
| CGCGGTACATGGACCGGTTTTCCCGGTAATCCGTATTTGCT (site CGCTGTACTAG) | 0.467 |
| CGCGTCACATGGACCGGTTTTCCCGGTAATCCGTATTTGAC (site CGCGTCACTGT) | 2.44 |
| CGCGTGTCATGGACCGGTTTTCCCGGTAATCCGTATTTGAC (site CGCGTGTCTGT) | 0 |
| CGCTAATCATGGACCGGTTTTCCCGGTAATCCGTATTTGCT (site CGATCATCTAG) | 0 |
| CGCTAATCATGGACCGGTTTTCCCGGTAATCCGTATTTGCT (site CGCTAATCTAG) | 1.97 |
| CGCTACACATGGACCGGTTTTCCCGGTAATCCGTATTTGCT (site CACTACACTAG) | 1.32 |
| CGCTACACATGGACCGGTTTTCCCGGTAATCCGTATTTGCT (site CCCTACACTAG) | 1.29 |
| CGCTACACATGGACCGGTTTTCCCGGTAATCCGTATTTGCT (site CGCTACACTAG) | 2.9 |
| CGCTACACATGGACCGGTTTTCCCGGTAATCCGTATTTGCT (site CTCTACACTAG) | 0.92 |
| CGCTAGGCATGGACCGGTTTTCCCGGTAATCCGTATTTGGT (site AGCTAGGCTAC) | 0.0207 |
| CGCTAGGCATGGACCGGTTTTCCCGGTAATCCGTATTTGGT (site CGCTAGGCTAC) | 0.0166 |
| CGCTAGGCATGGACCGGTTTTCCCGGTAATCCGTATTTGGT (site GGCTAGGCTAC) | 0.00627 |
| CGCTAGGCATGGACCGGTTTTCCCGGTAATCCGTATTTGGT (site TGCTAGGCTAC) | 0.0198 |
| CGCTCAACATGGACCGGTTTTCCCGGTAATCCGTATTTGCC (site CGCTCAACTGG) | 0.429 |
| CGCTCATCATGGACCGGTTTTCCCGGTAATCCGTATTTGCG (site CGATCATCTAG) | 0 |
| CGCTCATCATGGACCGGTTTTCCCGGTAATCCGTATTTGCG (site CGCTCATCTCG) | 0.716 |
| CGCTCATCATGGACCGGTTTTCCCGGTAATCCGTATTTGCT (site CGATCATCTAG) | 0 |

| Sequence | recombinant UMI read abundance (log10) |
| --- | --- |
| CGCTCATCATGGACCGGTTTTCCCGGTAATCCGTATTTGCT (site CGCTCATCTAG) | 2.6 |
| CGCTCATCATGGACCGGTTTTCCCGGTAATCCGTATTTGCT (site CGGTCATCTAG) | 0 |
| CGCTCATCATGGACCGGTTTTCCCGGTAATCCGTATTTGCT (site CGTTCATCTAG) | 1.35 |
| CGCTCGACATGGACCGGTTTTCCCGGTAATCCGTATTTGTT (site CGATCGACTAA) | 0 |
| CGCTCGACATGGACCGGTTTTCCCGGTAATCCGTATTTGTT (site CGCTCGACTAA) | 0 |
| CGCTCGACATGGACCGGTTTTCCCGGTAATCCGTATTTGTT (site CGGTCGACTAA) | 0 |
| CGCTCGACATGGACCGGTTTTCCCGGTAATCCGTATTTGTT (site CGTTCGACTAA) | 0 |
| CGCTGGCCATGGACCGGTTTTCCCGGTAATCCGTATTTGCT (site CGCTGGCCTAG) | 0.278 |
| CGCTTGGCATGGACCGGTTTTCCCGGTAATCCGTATTTGCT (site CGATTGGCTAG) | 0 |
| CGCTTGGCATGGACCGGTTTTCCCGGTAATCCGTATTTGCT (site CGCTTGGCTAG) | 0 |
| CGCTTGGCATGGACCGGTTTTCCCGGTAATCCGTATTTGCT (site CGGTTGGCTAG) | 0 |
| CGCTTGGCATGGACCGGTTTTCCCGGTAATCCGTATTTGCT (site CGTTTGGCTAG) | 0 |
| CGCTTGTCATGGACCGGTTTTCCCGGTAATCCGTATTTGCG (site CGCTTGTCTCG) | 1.46 |
| CGGAAATCATGGACCGGTTTTCCCGGTAATCCGTATTTGCT (site CGGAAATCTAG) | 2.06 |
| CGGAAATCATGGACCGGTTTTCCCGGTAATCCGTATTTGCT (site CGGACATCTAG) | 0.293 |
| CGGAAATCATGGACCGGTTTTCCCGGTAATCCGTATTTGCT (site CGGAGATCTAG) | 0.215 |
| CGGAAATCATGGACCGGTTTTCCCGGTAATCCGTATTTGCT (site CGGATATCTAG) | 0 |
| CGGAACGCATGGACCGGTTTTCCCGGTAATCCGTATTTGTT (site CGGAACGCTAA) | 3.15 |
| CGGAACGCATGGACCGGTTTTCCCGGTAATCCGTATTTGTT (site CGGAATCCTAA) | 0.0213 |
| CGGAAGACATGGACCGGTTTTCCCGGTAATCCGTATTTGTT (site CGGAAGACTAA) | 2.3 |
| CGGAAGACATGGACCGGTTTTCCCGGTAATCCGTATTTGTT (site CGGAATCCTAA) | 0.00737 |
| CGGAAGCCATGGACCGGTTTTCCCGGTAATCCGTATTTGAT (site CGGAAGCCTAT) | 0.713 |
| CGGAAGCCATGGACCGGTTTTCCCGGTAATCCGTATTTGAT (site CGGAATCCTAA) | 0 |
| CGGAAGCCATGGACCGGTTTTCCCGGTAATCCGTATTTGCA (site AGGAAGACTTG) | 0 |
| CGGAAGCCATGGACCGGTTTTCCCGGTAATCCGTATTTGCA (site CGGAAGCCTTG) | 0 |

— the supplement of paper PMC11208160
